Experiments:
[1] = test system: bedstraw; experiment: Test B pre/postemergence bedstraw; assay type: in vivo, Galium aparine
Outline: (§1)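 Response is a visual 0-to-10 score relative to untreated plants, where 0 means no effect and 10 means complete control, taken twelve to sixteen days after application. Treatments went onto soil at planting and onto foliage of 1- to 4-leaf plants, using a surfactant-containing non-phytotoxic solvent.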

[2] = test system: blackgrass; experiment: Test B pre/postemergence blackgrass; assay type: in vivo, Alopecurus myosuroides
Outline: as §1

[3] = test system: surinam grass; experiment: Test B pre/postemergence surinam grass; assay type: in vivo, Brachiaria decumbens
Outline: as §1

[4] = test system: cocklebur; experiment: Test B pre/postemergence cocklebur; assay type: in vivo, Xanthium strumarium
Outline: as §1

[5] = test system: corn; experiment: Test B pre/postemergence corn; assay type: in vivo, Zea mays
Outline: as §1

[6] = test system: crabgrass; experiment: Test B pre/postemergence crabgrass; assay type: in vivo, Digitaria sanguinalis
Outline: as §1

[7] = test system: giant foxtail; experiment: Test B pre/postemergence giant foxtail; assay type: in vivo, Setaria faberii
Outline: as §1

[8] = test system: morningglory; experiment: Test B pre/postemergence morningglory; assay type: in vivo, Ipomoea hederacea
Outline: as §1

[9] = test system: pigweed; experiment: Test B pre/postemergence pigweed; assay type: in vivo, Amaranthus retroflexus
Outline: as §1

[10] = test system: rape; experiment: Test B pre/postemergence rape; assay type: in vivo, Brassica napus
Outline: as §1

[11] = test system: soybean; experiment: Test B pre/postemergence soybean; assay type: in vivo, Glycine max
Outline: as §1

[12] = test system: sugar beet; experiment: Test B pre/postemergence sugar beet; assay type: in vivo, Beta vulgaris
Outline: as §1

[13] = test system: velvetleaf; experiment: Test B pre/postemergence velvetleaf; assay type: in vivo, Abutilon theophrasti
Outline: as §1

[14] = test system: wheat; experiment: Test B pre/postemergence wheat; assay type: in vivo, Triticum aestivum
Outline: as §1

[15] = test system: wild oat; experiment: Test B pre/postemergence wild oat; assay type: in vivo, Avena fatua
Outline: as §1

[16] = test system: purple nutsedge; experiment: Test B pre/postemergence purple nutsedge; assay type: in vivo, Cyperus rotundus
Outline: as §1

[17] = Postemergence, Rate 62 g/ha, scale of 0 to 10, 0 is no effect, 10 is complete control
[18] = Postemergence, Rate 125 g/ha, scale 0 to 10, 0 is no effect, 10 is complete control
[19] = Postemergence, Rate 500 g/ha, scale 0 to 10, 0 is no effect, 10 is complete control
[20] = Preemergence, Rate 62 g/ha, scale 0 to 10 (0 no effect, 10 complete control)
[21] = Preemergence, Rate 125 g/ha, scale 0 to 10, 0 is no effect, 10 is complete control
[22] = Preemergence, Rate 500 g/ha, scale of 0 to 10 where 0 is no effect and 10 is complete control
[23] = Rate 250 g/ha, Postemergence, scale of 0 to 10 where 0 is no effect and 10 is complete control

CCOC(=O)C=C(Cn1c(=O)on(C(=O)N(c2ccc(Cl)cc2)C(C)C)c1=O)OCC [Compound 549]
2: Plant response rating, Blackgrass [2, 23] | Crabgrass plant response rating [6, 17] | Giant foxtail plant response rating [7, 17] | Giant foxtail plant response rating [7, 18] | Plant response rating, Giant foxtail [7, 23] | Soybean plant response rating [11, 17] | Soybean plant response rating [11, 18] | Plant response rating, Soybean [11, 23] | Plant response rating, Wheat [14, 19] | Plant response rating, Wild oats [15, 19]
0: Bedstraw plant response rating [1, 17] | Bedstraw plant response rating [1, 18] | Bedstraw plant response rating [1, 20] | Bedstraw plant response rating [1, 21] | Plant response rating, Bedstraw [1, 23] | Blackgrass plant response rating [2, 17] | Blackgrass plant response rating [2, 18] | Blackgrass plant response rating [2, 20] | B. signalgrass plant response rating [3, 17] | B. signalgrass plant response rating [3, 18] | B. signalgrass plant response rating [3, 20] | B. signalgrass plant response rating [3, 21] | B. signalgrass plant response rating (0 to 10 scale, 0 is no effect, 10 is complete control) ([3]; Preemergence, Rate 250 g/ha) | B. signalgrass plant response rating [3, 22] | Plant response rating, B. signalgrass [3, 23] | Cocklebur plant response rating [4, 17] | Cocklebur plant response rating [4, 18] | Cocklebur plant response rating [4, 20] | Cocklebur plant response rating [4, 21] | Cocklebur plant response rating (0 to 10 scale) ([4]; Preemergence, Rate 250 g/ha) | Cocklebur plant response rating [4, 22] | Plant response rating, Cocklebur [4, 23] | Corn plant response rating [5, 17] | Corn plant response rating [5, 18] | Plant response rating, Corn [5, 19] | Corn plant response rating [5, 20] | Corn plant response rating [5, 21] | Corn plant response rating (0 to 10 scale) ([5]; Preemergence, Rate 250 g/ha) | Corn plant response rating [5, 22] | Plant response rating, Corn [5, 23] | Morningglory plant response rating [8, 20] | Morningglory plant response rating [8, 21] | Morningglory plant response rating (0 to 10 scale) ([8]; Preemergence, Rate 250 g/ha) | Morningglory plant response rating [8, 22] | Redroot pigweed plant response rating [9, 17] | Redroot pigweed plant response rating [9, 18] | Plant response rating, Redroot pigweed [9, 23] | Rape plant response rating [10, 17] | Rape plant response rating [10, 18] | Rape plant response rating [10, 20] | Rape plant response rating [10, 21] | Rape plant response rating (0 to 10 scale) ([10]; Preemergence, Rate 250 g/ha) | Rape plant response rating [10, 22] | Soybean plant response rating [11, 20] | Soybean plant response rating [11, 21] | Soybean plant response rating (0 to 10 scale) ([11]; Preemergence, Rate 250 g/ha) | Soybean plant response rating [11, 22] | Sugarbeets plant response rating [12, 17] | Sugarbeets plant response rating [12, 18] | Sugarbeets plant response rating [12, 20] | Sugarbeets plant response rating [12, 21] | Sugarbeets plant response rating (0 to 10 scale) ([12]; Preemergence, Rate 250 g/ha) | Plant response rating, Sugarbeets [12, 23] | Velvetleaf plant response rating [13, 18] | Velvetleaf plant response rating [13, 20] | Velvetleaf plant response rating [13, 21] | Velvetleaf plant response rating (0 to 10 scale) ([13]; Preemergence, Rate 250 g/ha) | Velvetleaf plant response rating [13, 22] | Wheat plant response rating [14, 17] | Wheat plant response rating [14, 18] | Wheat plant response rating [14, 20] | Wheat plant response rating [14, 21] | Wheat plant response rating [14, 22] | Plant response rating, Wheat [14, 23] | Wild oats plant response rating [15, 17] | Wild oats plant response rating [15, 18] | Wild oats plant response rating [15, 20] | Wild oats plant response rating [15, 21] | Wild oats plant response rating (0 to 10 scale) ([15]; Preemergence, Rate 250 g/ha) | Plant response rating, Wild oats [15, 23] | Nutsedge plant response rating [16, 18] | Plant response rating, Nutsedge [16, 19] | Nutsedge plant response rating [16, 21] | Nutsedge plant response rating (0 to 10 scale) ([16]; Preemergence, Rate 250 g/ha) | Nutsedge plant response rating [16, 22]
8: Plant response rating, Bedstraw [1, 19] | Plant response rating, Redroot pigweed [9, 19]
3: Plant response rating, Blackgrass [2, 19] | Plant response rating, B. signalgrass [3, 19] | Crabgrass plant response rating [6, 18] | Crabgrass plant response rating [6, 20] | Plant response rating, Soybean [11, 19] | Sugarbeets plant response rating [12, 22] | Wild oats plant response rating [15, 22]
5: Bedstraw plant response rating (0 to 10 scale) ([1]; Preemergence, Rate 250 g/ha) | Bedstraw plant response rating [1, 22] | Plant response rating, Rape [10, 23]
6: Blackgrass plant response rating (0 to 10 scale) ([2]; Preemergence, Rate 250 g/ha) | Plant response rating, Crabgrass [6, 23] | Redroot pigweed plant response rating [9, 20] | Redroot pigweed plant response rating [9, 21]
7: Crabgrass plant response rating [6, 21] | Plant response rating, Giant foxtail [7, 19] | Plant response rating, Rape [10, 19]
4: Blackgrass plant response rating [2, 21] | Plant response rating, Cocklebur [4, 19] | Morningglory plant response rating [8, 17] | Morningglory plant response rating [8, 18] | Plant response rating, Morningglory [8, 19] | Plant response rating, Morningglory [8, 23] | Plant response rating, Sugarbeets [12, 19] | Plant response rating, Velvetleaf [13, 19] | Plant response rating, Velvetleaf [13, 23]
10: Crabgrass plant response rating (0 to 10 scale) ([6]; Preemergence, Rate 250 g/ha) | Crabgrass plant response rating [6, 22] | Giant foxtail plant response rating [7, 21] | Giant foxtail plant response rating (0 to 10 scale) ([7]; Preemergence, Rate 250 g/ha) | Giant foxtail plant response rating [7, 22]
9: Plant response rating, Crabgrass [6, 19] | Giant foxtail plant response rating [7, 20]
